Type in all cases: biochemical
In one assay the target is T1, Bovine LOX (Bos taurus, UniProt P33072).
T1 sequence (P33072 170-418): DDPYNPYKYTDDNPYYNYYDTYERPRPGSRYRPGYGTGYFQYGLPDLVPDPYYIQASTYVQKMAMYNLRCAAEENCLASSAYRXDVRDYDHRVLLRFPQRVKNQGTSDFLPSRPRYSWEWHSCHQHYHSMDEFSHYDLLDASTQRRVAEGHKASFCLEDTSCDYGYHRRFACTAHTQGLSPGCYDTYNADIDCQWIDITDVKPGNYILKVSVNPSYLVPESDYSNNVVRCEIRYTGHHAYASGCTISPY
Kind of assay: LOX inhibition, Amplex Red oxidation assay. Here is the method:
(§1) LOX and LOXL protein family members can be acquired as recombinant active proteins from commercial sources, or extracted from animal tissues like bovine aorta, tendons, pig skin; or prepared from cell cultures. […] The assay was developed using either 384 or 96 well format. Briefly, in a standard black, clear bottom 384 well plate assay 25 μL of a dilution of any of the isoenzymes and orthologues in 1.2 M urea, 50 mM sodium borate buffer (pH 8.2) were added into each well in the presence of 1 μM mofegiline and 0.5 mM pargyline (to inhibit SSAO and MAO-B and MAO-A, respectively; not necessary if the enzyme is from a recombinant or purified form). Test compounds were dissolved in DMSO and tested in a Concentration Response Curve (CRC) with 11 data points, typically in the micromolar or nanomolar range after incubation with the enzyme for 30 min at 37° C. 25 μL of a reaction mixture containing twice the KM concentration of putrescine (Sigma Aldrich, e.g. 20 mM for LOX and LOXL1 or 10 mM for LOXL2 and 4 mM for LOXL3 and LOXL4), 120 μM Amplex Red (Sigma Aldrich) and 1.5 U/mL horseradish peroxidase (Sigma Aldrich) prepared in 1.2 M urea, 50 mM sodium borate buffer (pH 8.2) were then added to the corresponding wells. The above volumes were doubled in the case of 96 wells plate. The fluorescence (RFU) was read every 2.5 min for 30 min at […] 37° C., excitation 565 nm and emission 590 (Optima; BMG labtech). The slope of the kinetics for each well was calculated using MARS data analysis software (BMG labtech) and this value was used to deduce the IC50 value (Dotmatics). The ability of the inventive compounds to inhibit the amine oxidase activity of LOX and other family members is shown in Table 4.

The target in a further assay is T2, Human recombinant LOXL1 (Homo sapiens, UniProt Q08397).
T2 sequence (Q08397 96-574): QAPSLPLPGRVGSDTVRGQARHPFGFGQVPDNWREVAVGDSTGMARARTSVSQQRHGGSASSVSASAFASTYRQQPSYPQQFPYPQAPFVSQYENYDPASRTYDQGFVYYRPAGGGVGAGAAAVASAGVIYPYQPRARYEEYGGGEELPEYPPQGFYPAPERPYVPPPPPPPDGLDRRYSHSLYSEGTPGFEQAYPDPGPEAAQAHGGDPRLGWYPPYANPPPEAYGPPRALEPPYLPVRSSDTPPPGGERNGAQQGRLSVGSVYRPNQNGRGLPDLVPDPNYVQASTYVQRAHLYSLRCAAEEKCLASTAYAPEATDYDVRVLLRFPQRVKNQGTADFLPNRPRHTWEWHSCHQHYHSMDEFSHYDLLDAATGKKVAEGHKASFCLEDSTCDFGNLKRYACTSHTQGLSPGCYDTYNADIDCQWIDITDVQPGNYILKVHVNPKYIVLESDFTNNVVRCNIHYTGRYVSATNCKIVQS
As to the kind of experiment: LOXL1 inhibition, Amplex Red oxidation assay. Here is the method:
as §1

Another assay has as its target T3, Human recombinant LOXL3 (Homo sapiens, UniProt P58215).
T3 sequence (P58215 26-753): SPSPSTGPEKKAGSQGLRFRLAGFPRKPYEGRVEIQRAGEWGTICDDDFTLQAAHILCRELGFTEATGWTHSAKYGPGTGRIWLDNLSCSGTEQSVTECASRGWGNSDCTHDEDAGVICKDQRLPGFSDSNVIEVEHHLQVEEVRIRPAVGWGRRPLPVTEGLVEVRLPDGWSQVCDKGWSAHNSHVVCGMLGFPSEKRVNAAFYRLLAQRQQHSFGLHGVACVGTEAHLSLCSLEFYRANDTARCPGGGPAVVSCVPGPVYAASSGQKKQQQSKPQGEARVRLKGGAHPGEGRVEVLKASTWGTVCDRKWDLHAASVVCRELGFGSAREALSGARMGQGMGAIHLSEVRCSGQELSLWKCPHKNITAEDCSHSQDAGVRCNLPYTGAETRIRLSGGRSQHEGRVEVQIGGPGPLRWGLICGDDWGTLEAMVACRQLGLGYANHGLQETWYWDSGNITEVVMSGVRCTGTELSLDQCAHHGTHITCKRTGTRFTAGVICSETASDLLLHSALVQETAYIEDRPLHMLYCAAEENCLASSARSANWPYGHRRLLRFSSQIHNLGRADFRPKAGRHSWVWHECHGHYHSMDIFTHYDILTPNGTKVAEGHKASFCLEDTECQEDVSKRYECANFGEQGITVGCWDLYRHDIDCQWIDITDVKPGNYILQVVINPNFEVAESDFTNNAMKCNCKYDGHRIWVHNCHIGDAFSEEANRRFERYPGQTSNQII
As to the kind of experiment: LOXL3 inhibition, Amplex Red oxidation assay. Here is the method:
as §1

In the next assay the target is T4, Human recombinant LOXL4 (Homo sapiens, UniProt Q96JB6).
T4 sequence (Q96JB6 25-756): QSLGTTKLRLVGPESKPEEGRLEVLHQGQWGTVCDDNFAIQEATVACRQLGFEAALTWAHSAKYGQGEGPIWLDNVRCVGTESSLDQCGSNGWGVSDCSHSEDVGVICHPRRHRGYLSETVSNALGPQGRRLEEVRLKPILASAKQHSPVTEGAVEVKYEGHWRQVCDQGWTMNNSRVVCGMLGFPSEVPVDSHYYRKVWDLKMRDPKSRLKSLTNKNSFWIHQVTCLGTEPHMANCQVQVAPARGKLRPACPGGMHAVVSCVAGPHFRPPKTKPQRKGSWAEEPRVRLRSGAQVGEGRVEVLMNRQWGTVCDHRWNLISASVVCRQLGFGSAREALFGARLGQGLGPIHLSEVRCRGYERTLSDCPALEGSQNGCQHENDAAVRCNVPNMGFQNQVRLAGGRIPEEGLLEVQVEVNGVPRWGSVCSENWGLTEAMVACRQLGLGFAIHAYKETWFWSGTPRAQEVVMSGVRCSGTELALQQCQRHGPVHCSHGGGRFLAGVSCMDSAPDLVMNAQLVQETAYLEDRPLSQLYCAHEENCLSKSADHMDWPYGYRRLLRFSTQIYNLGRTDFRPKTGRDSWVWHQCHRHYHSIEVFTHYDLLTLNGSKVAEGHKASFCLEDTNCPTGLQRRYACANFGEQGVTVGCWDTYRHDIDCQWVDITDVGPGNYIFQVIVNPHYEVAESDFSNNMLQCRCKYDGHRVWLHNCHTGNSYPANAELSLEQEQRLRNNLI
Kind of assay: LOXL4 inhibition, Amplex Red oxidation assay. How it is done: as §1

Where [1] appears, read: incubation with enzyme 30 min at 37° C, read-out: Bovine LOX Activity IC50.
[2] abbreviates: incubation with enzyme 30 min at 37° C, read-out: Human recombinant LOXL1 Activity IC50.
[3] abbreviates: incubation with enzyme 30 min at 37° C, read-out: Human recombinant LOXL3 Activity IC50.
Where [4] appears, read: incubation with enzyme 30 min at 37° C, read-out: Human recombinant LOXL4 Activity IC50.

Where two headings read alike, the source gives them in different places.

As for `Cc1ccccc1S(=O)(=O)C(F)(F)/C(F)=C/CN` [Compound 5, (Z)-3,4,4-trifluoro-4-(o-tolylsulfonyl)but-2-en-1-amine], on Bovine LOX (setting [1]), the IC50 amounted to 3800 nM.

Take `N#CCCN` [BAPN, β-aminopropionitrile, reference compound]: the IC50 turned out to be 2200 nM at Bovine LOX (setting [1]), 2500 nM on Human recombinant LOXL1 (setting [2]), 500 nM at Human recombinant LOXL3 (setting [3]) and 300 nM on Human recombinant LOXL4 (setting [4]).

As for `NC/C=C(\F)C(F)(F)S(=O)(=O)C1CCCC1` [Compound 19, (Z)-4-(cyclopentylsulfony1)-3,4,4-trifluorobut-2-en-1-amine], the IC50 on Bovine LOX (setting [1]) came out at 2500 nM; on Human recombinant LOXL1 (setting [2]), 4300 nM; at Human recombinant LOXL3 (setting [3]) it was 1300 nM; on Human recombinant LOXL4 (setting [4]) it was 500 nM.

Consider `CNc1ccccc1S(=O)(=O)C(F)(F)/C(F)=C/CN` [Compound 4, (Z)-2-((4-amino-1,1,2-trifluorobut-2-en-yl)sulfony1)-N-methylaniline], for which the IC50 at Bovine LOX (setting [1]) worked out at 4300 nM; on Human recombinant LOXL1 (setting [2]), 4800 nM; on Human recombinant LOXL3 (setting [3]), 7400 nM; at Human recombinant LOXL4 (setting [4]), 700 nM.

On to `Cc1ccc(S(=O)(=O)C(F)(F)/C(F)=C/CN)cc1` [Compound 6, (Z)-3,4,4-trifluoro-4-tosylbut-2-en-1-amine], for which the IC50 amounted to 3500 nM at Bovine LOX (setting [1]), 5100 nM at Human recombinant LOXL1 (setting [2]), 1800 nM on Human recombinant LOXL3 (setting [3]) and 300 nM on Human recombinant LOXL4 (setting [4]).

On to `COc1cccc(S(=O)(=O)C(F)(F)/C(F)=C/CN)c1` [Compound 12, (Z)-3,4,4-trifluoro-4-((3-methoxyphenyl)sulfonyl)but-2-en-1-amine], for which the IC50 at Bovine LOX (setting [1]) turned out to be 5100 nM; on Human recombinant LOXL1 (setting [2]), 7400 nM; at Human recombinant LOXL3 (setting [3]) it was 2700 nM; on Human recombinant LOXL4 (setting [4]), 300 nM.

Regarding `NC/C=C(\F)C(F)(F)S(=O)(=O)c1cccc2cccnc12` [Compound 2, (Z)-3,4,4-trifluoro-4-(quinolin-8-ylsulfonyl)but-2-en-1-amine], the IC50 at Bovine LOX (setting [1]) came out at 8000 nM; at Human recombinant LOXL1 (setting [2]), 13400 nM; at Human recombinant LOXL3 (setting [3]) it was 16400 nM; on Human recombinant LOXL4 (setting [4]), 600 nM.

`CS(=O)(=O)c1ccc(COc2ccccc2S(=O)(=O)C(F)(F)/C(F)=C/CN)cc1` [Compound 10, (Z)-3,4,4-trifluoro-4-((2-((4-(methylsulfonyl)benzyl)oxy)phenyl)sulfonyl) but-2-en-1-amine]: the IC50 at Bovine LOX (setting [1]) came to 2700 nM; on Human recombinant LOXL1 (setting [2]) it was 2000 nM; on Human recombinant LOXL3 (setting [3]) it was 1500 nM; at Human recombinant LOXL4 (setting [4]), 100 nM.

Turning to `NC/C=C(\F)C(F)(F)S(=O)(=O)c1ccccc1` [Compound 1, (Z)-3,4,4-trifluoro-4-(phenylsulfonyl)but-2-en-1-amine], the IC50 against Bovine LOX worked out at 3700 nM; on Human recombinant LOXL1 it was 3400 nM; on Human recombinant LOXL3 it was 1500 nM; on Human recombinant LOXL4, 300 nM.

For `CS(=O)(=O)c1cccc(CS(=O)(=O)C(F)(F)/C(F)=C/CN)c1` [Compound 17, (Z)-3,4,4-trifluoro-4-((3-(methylsulfonyl)benzyl)sulfonyl)but-2-en-1-amine], the IC50 on Bovine LOX (setting [1]) came to 3500 nM; on Human recombinant LOXL1 (setting [2]), 4600 nM; on Human recombinant LOXL3 (setting [3]) it was 800 nM; at Human recombinant LOXL4 (setting [4]), 200 nM.

In the case of `NC/C=C(\F)C(F)(F)S(=O)(=O)c1cccs1` [Compound 14, (Z)-3,4,4-trifluoro-4-(thiophen-2-ylsulfonyl)but-2-en-1-amine], the IC50 at Bovine LOX (setting [1]) was 4500 nM; at Human recombinant LOXL1 (setting [2]) it was 7000 nM; on Human recombinant LOXL3 (setting [3]) it was 1200 nM; at Human recombinant LOXL4 (setting [4]), 200 nM.

Turning to `NC/C=C(\F)C(F)(F)[S+]([O-])c1ccccc1` (stereo not shown) [Compound 9, (Z)-3,4,4-trifluoro-4-(phenylsulfinyl)but-2-en-1-amine], the IC50 was found to be 6500 nM at Bovine LOX (setting [1]), 8700 nM on Human recombinant LOXL1 (setting [2]), 5200 nM at Human recombinant LOXL3 (setting [3]) and 1100 nM on Human recombinant LOXL4 (setting [4]).

For `NC/C=C(\F)C(F)(F)S(=O)(=O)Cc1ccccc1` [Compound 8, (Z)-4-(benzylsulfony1)-3,4,4-trifluorobut-2-en-1-amine], the IC50 amounted to 2500 nM on Bovine LOX (setting [1]), 3100 nM at Human recombinant LOXL1 (setting [2]), 1000 nM at Human recombinant LOXL3 (setting [3]) and 100 nM on Human recombinant LOXL4 (setting [4]).

The record behind these values is US20220251036A1, “DIFLUOROHALOALLYLAMINE SULFONE DERIVATIVE INHIBITORS OF LYSYL OXIDASES, METHODS OF PREPARATION, AND USES THEREOF” (PHARMAXIS LTD., priority 2019, published 2022).
